Measurements: patent publication US10590143B2, “Herbicidally active (alkynyl-phenyl)-substituted cyclic dione compounds and derivatives thereof” (Syngenta Limited, priority 2013, dated 2020)

Tests used:
Assay in all cases: Biological Example 2 glasshouse assay for herbicidal activity
Type in all cases: in vivo
[1] = test system: Digitaria sanguinalis (DIGSA); settings: post-emergence, 360 h, 14 or 15 DAA, 0.2% v/v X-77, read-out: percentage phytotoxicity DIGSA
Procedure, shortened: (§1)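 Herbicide applied as a spray (IF50 formulation, 0.2% v/v X-77 adjuvant) to soil-grown plants pre-emergence or post-emergence. Ratings were taken 20 DAA or 14–15 DAA respectively, on a 0–100% scale.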

[2] = test system: Zea mays (ZEAMX, corn, maize, e.g. volunteer corn); settings: post-emergence, 14 or 15 DAA
Procedure, shortened: as §1

[3] = test system: Alopecurus myosuroides (ALOMY); settings: post-emergence, 360 h, 14 or 15 DAA, 0.2% v/v X-77, read-out: percentage phytotoxicity ALOMY
Procedure, shortened: (§2)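 Visual % phytotoxicity (100% = total damage, 0% = none), scored 14 or 15 DAA post-emergence or 20 DAA pre-emergence. The spray was the IF50 emulsifiable formulation in aqueous 0.2% v/v X-77 at rate-dependent concentration. Glasshouse: 24/18 °C day/night for warm-season BRAPL, 20/16 °C for cool-season wheat, ALOMY and sugarbeet.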

Setaria faberi (SETFA) = settings: post-emergence, 360 h, 14 or 15 DAA, 0.2% v/v X-77, read-out: percentage phytotoxicity SETFA
Procedure, shortened: as §1

[4] = test system: Echinochloa crus-galli (ECHCG); settings: post-emergence, 14 or 15 DAA; for percentage phytotoxicity ECHCG: 0.2% v/v X-77
Procedure, shortened: as §1

[5] = test system: Beta vulgaris (BEAVA, sugarbeet); settings: post-emergence, 360 h, 14 or 15 DAA, 0.2% v/v X-77, read-out: percentage phytotoxicity BEAVA
Procedure, shortened: as §2

[6] = test system: Brachiaria plantaginea (BRAPL); settings: Urochloa plantaginea, post-emergence, 360 h, 14 or 15 DAA, 0.2% v/v X-77, read-out: percentage phytotoxicity BRAPL
Procedure, shortened: as §2

[7] = test system: SORVU (Sorghum bicolor (L.) Moench ssp. Bicolor, or Sorghum vulgare Pers.); settings: post-emergence, 360 h, 14 or 15 DAA, 0.2% v/v X-77, read-out: percentage phytotoxicity SORVU
Procedure, shortened: as §1

[8] = test system: Triticum aestivum (TRZAW, winter wheat); settings: post-emergence, 360 h, 14 or 15 DAA, 0.2% v/v X-77, read-out: percentage phytotoxicity TRZAW
Procedure, shortened: as §2

Avena fatua (AVEFA) = settings: post-emergence, 360 h, 14 or 15 DAA, 0.2% v/v X-77, read-out: percentage phytotoxicity AVEFA
Procedure, shortened: as §1

[9] = test system: Glycine max (GLXMA, soybean); settings: post-emergence, 360 h, 14 or 15 DAA, 0.2% v/v X-77, read-out: percentage phytotoxicity GLXMA
Procedure, shortened: as §1

[10] = Zea mays, 360 h, 0.2% v/v X-77, read-out: percentage phytotoxicity ZEAMX
[11] = Zea mays, 360 h, 250 g/ha, 0.2% v/v X-77, read-out: percentage phytotoxicity ZEAMX
[12] = Echinochloa crus-galli, 360 h, 30 g/ha, 0.2% v/v X-77, read-out: percentage phytotoxicity ECHCG
[13] = Echinochloa crus-galli, 360 h, 250 g/ha, 0.2% v/v X-77, read-out: percentage phytotoxicity ECHCG

SMILES	pest or weed control at 30 g/ha [1]	pest or weed control at 250 g/ha [1]	pest or weed control at 30 g/ha [2, 10]	pest or weed control at 250 g/ha [2, 11]	pest or weed control at 30 g/ha [3]	pest or weed control at 250 g/ha [3]	pest or weed control at 30 g/ha (Setaria faberi (SETFA))	pest or weed control at 250 g/ha (Setaria faberi (SETFA))	pest or weed control at 30 g/ha [4, 12]	pest or weed control at 250 g/ha [4, 13]	plant injury at 250 g/ha [5]	pest or weed control at 30 g/ha [6]	pest or weed control at 250 g/ha [6]	pest or weed control at 30 g/ha [7]	pest or weed control at 250 g/ha [7]	plant injury at 30 g/ha [8]	plant injury at 250 g/ha [8]	pest or weed control at 30 g/ha (Avena fatua (AVEFA))	pest or weed control at 250 g/ha (Avena fatua (AVEFA))	plant injury at 250 g/ha [9]	also measured
CC#Cc1cc(F)c(C2C(=O)C3CCC(C3)C2=O)c(OC)c1 (centres unmarked) [Compound A1, 3-(2-Fluoro-6-methoxy-4-prop-1-ynyl-phenyl)-bicyclo[3.2.1]octane-2,4-dione]	100%	100%	90%	100%	80%	100%	90%	100%	100%	100%	30%	90%	100%	90%	100%	70%	100%	90%	100%	–	percentage phytotoxicity ZEAMX ([2]; 250 g/ha, 0.2% v/v X-77): 100%; percentage phytotoxicity ECHCG ([4]; 30 g/ha): 100%; percentage phytotoxicity ECHCG ([4]; 250 g/ha): 100%
CC#Cc1cc(F)c(C2C(=O)C3CCC(C)(C2=O)C3(C)C)c(OC)c1 (centres unmarked) [Compound A2]	–	80%	–	90%	–	60%	–	80%	–	90%	0%	–	–	–	90%	–	0%	–	0%	20%	–
CC#Cc1cc(F)c(C2C(=O)C3CCC(C3)C2=O)c(OC(F)F)c1 (centres unmarked) [Compound A7]	90%	100%	80%	100%	30%	70%	60%	90%	90%	100%	10%	90%	100%	50%	100%	30%	70%	10%	40%	20%	pest or weed control at 125 g/ha ([1]; 125 g/ha): 100%; pest or weed control at 125 g/ha ([2]; Zea mays, 360 h, 125 g/ha, 0.2% v/v X-77, read-out: percentage phytotoxicity ZEAMX): 90%; pest or weed control at 125 g/ha ([3]; 125 g/ha): 70%; plant injury at 30 g/ha [9]: 20%; plant injury at 125 g/ha ([9]; 125 g/ha): 20%; pest or weed control at 125 g/ha (Setaria faberi (SETFA); 125 g/ha): 90%; pest or weed control at 125 g/ha ([4]; Echinochloa crus-galli, 360 h, 125 g/ha, 0.2% v/v X-77, read-out: percentage phytotoxicity ECHCG): 100%; plant injury at 30 g/ha [5]: 0%; plant injury at 125 g/ha ([5]; 125 g/ha): 0%; pest or weed control at 125 g/ha ([6]; 125 g/ha): 100%; pest or weed control at 125 g/ha ([7]; 125 g/ha): 90%; plant injury at 125 g/ha ([8]; 125 g/ha): 70%; pest or weed control at 125 g/ha (Avena fatua (AVEFA); 125 g/ha): 30%
CC#Cc1cc(F)c(C2=C(OC(=O)C(C)(C)C)C3CCC(C3)C2=O)c(OC)c1 (centres unmarked) [Compound P1]	90%	100%	100%	100%	80%	90%	80%	90%	100%	100%	0%	100%	90%	100%	100%	60%	90%	80%	90%	20%	plant injury at 30 g/ha [9]: 0%; plant injury at 30 g/ha [5]: 0%
CC#Cc1cc(F)c(C2=C(OC(=O)OC(C)C)C3CCC(C3)C2=O)c(OC)c1 (centres unmarked) [Compound P3]	100%	100%	100%	100%	70%	90%	100%	100%	100%	100%	0%	100%	100%	100%	100%	80%	90%	90%	90%	0%	plant injury at 30 g/ha [9]: 0%; plant injury at 30 g/ha [5]: 0%
CC#Cc1cc(F)c(C2=C(OC(=O)SCC)C3CCC(C3)C2=O)c(OC)c1 (centres unmarked) [Compound P4]	80%	100%	100%	100%	80%	100%	90%	100%	90%	100%	0%	100%	100%	100%	100%	80%	100%	90%	100%	20%	plant injury at 30 g/ha [9]: 10%; plant injury at 30 g/ha [5]: 0%
